Values of other authors as cited in patent US8778892B2, “Compounds and methods for treatment of solid tumors” (B & G Partners, LLC, priority 2008, dated 2014).

Target: CD44 (Homo sapiens, UniProt P16070)
Details: intact cells

Sequence of CD44 (P16070 21-742, species assumed): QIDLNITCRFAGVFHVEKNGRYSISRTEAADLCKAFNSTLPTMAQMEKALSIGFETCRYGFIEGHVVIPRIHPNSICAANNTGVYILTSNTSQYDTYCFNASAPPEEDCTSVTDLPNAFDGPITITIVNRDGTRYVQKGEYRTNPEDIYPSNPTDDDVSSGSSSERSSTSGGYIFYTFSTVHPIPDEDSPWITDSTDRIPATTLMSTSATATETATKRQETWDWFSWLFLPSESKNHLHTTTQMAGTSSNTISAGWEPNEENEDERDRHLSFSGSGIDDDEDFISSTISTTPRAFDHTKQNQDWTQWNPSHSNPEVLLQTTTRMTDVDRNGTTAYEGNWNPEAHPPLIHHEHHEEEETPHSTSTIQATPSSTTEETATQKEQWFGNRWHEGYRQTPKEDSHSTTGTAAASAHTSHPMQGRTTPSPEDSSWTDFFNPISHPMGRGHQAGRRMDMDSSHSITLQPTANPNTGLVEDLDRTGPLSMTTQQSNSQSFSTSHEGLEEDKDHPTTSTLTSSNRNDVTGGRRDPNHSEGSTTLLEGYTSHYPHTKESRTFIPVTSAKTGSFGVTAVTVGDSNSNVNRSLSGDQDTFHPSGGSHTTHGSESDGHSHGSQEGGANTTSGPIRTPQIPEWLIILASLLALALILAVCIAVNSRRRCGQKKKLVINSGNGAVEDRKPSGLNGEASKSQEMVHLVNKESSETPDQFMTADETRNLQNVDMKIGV

capacity to compete with hyaluronan for binding	Substance
little capacity to compete	chondroitin sulfate
little capacity to compete	heparan sulfate
